Measurements published in ChEMBL document CHEMBL5303573, “Mapping human microbiome drug metabolism by gut bacteria and their genes” (Nature, 2019).

Assay: The drug is tested on Bacteroides xylanisolvens strain: DSM18836 for biotransformation. The drug concentrations were measured before and after a 12-h incubation by liquid-chromatography-coupled mass spectrometry (LC–MS)
Conditions: 2 µM
In the case of CC(=O)OCC(=O)NCCCOc1cccc(CN2CCCCC2)c1 [ROXATIDINE ACETATE], the “Bacterial Biotransformation” value is reported as “Compound metabolized”.

Assay: The drug is tested on Collinsella aerofaciens strain: ATCC25986 for biotransformation. The drug concentrations were measured before and after a 12-h incubation by liquid-chromatography-coupled mass spectrometry (LC–MS)
Conditions: 2 µM
With CC#C[C@]1(O)CC[C@H]2[C@@H]3CCC4=CC(=O)CCC4=C3[C@@H](c3ccc(N(C)C)cc3)C[C@@]21C [MIFEPRISTONE] the “Bacterial Biotransformation” value was “Compound NOT metabolized”.
In the case of CC(=O)OCC(=O)NCCCOc1cccc(CN2CCCCC2)c1 [ROXATIDINE ACETATE], the “Bacterial Biotransformation” value is reported as “Compound metabolized”.

Conditions: bacteroides fragilis, 12 h, 2 µM
Description: The drug is tested on Bacteroides fragilis strain: 3397 (T10) for biotransformation. The drug concentrations were measured before and after a 12-h incubation by liquid-chromatography-coupled mass spectrometry (LC–MS)
For CC#C[C@]1(O)CC[C@H]2[C@@H]3CCC4=CC(=O)CCC4=C3[C@@H](c3ccc(N(C)C)cc3)C[C@@]21C [MIFEPRISTONE], the “Bacterial Biotransformation” value was “Compound NOT metabolized”.
In the case of CC(=O)OCC(=O)NCCCOc1cccc(CN2CCCCC2)c1 [ROXATIDINE ACETATE], the “Bacterial Biotransformation” value is reported as “Compound metabolized”.

Assay: The drug is tested on Eubacterium hallii strain: DSM3353 for biotransformation. The drug concentrations were measured before and after a 12-h incubation by liquid-chromatography-coupled mass spectrometry (LC–MS)
Conditions: anaerobutyricum hallii, 2 µM
With CC#C[C@]1(O)CC[C@H]2[C@@H]3CCC4=CC(=O)CCC4=C3[C@@H](c3ccc(N(C)C)cc3)C[C@@]21C [MIFEPRISTONE] the “Bacterial Biotransformation” value was “Compound NOT metabolized”.
For CC(=O)OCC(=O)NCCCOc1cccc(CN2CCCCC2)c1 [ROXATIDINE ACETATE], the “Bacterial Biotransformation” value was “Compound NOT metabolized”.

Conditions: anaerostipes sp., 12 h, 2 µM
Description: The drug is tested on Anaerostipes sp. strain: fecal isolate for biotransformation. The drug concentrations were measured before and after a 12-h incubation by liquid-chromatography-coupled mass spectrometry (LC–MS)
With CC#C[C@]1(O)CC[C@H]2[C@@H]3CCC4=CC(=O)CCC4=C3[C@@H](c3ccc(N(C)C)cc3)C[C@@]21C [MIFEPRISTONE] the “Bacterial Biotransformation” value was “Compound NOT metabolized”.
For CC(=O)OCC(=O)NCCCOc1cccc(CN2CCCCC2)c1 [ROXATIDINE ACETATE], the “Bacterial Biotransformation” value was “Compound metabolized”.

Assay: The drug is tested on Odoribacter splanchnicus strain: fecal isolate for biotransformation. The drug concentrations were measured before and after a 12-h incubation by liquid-chromatography-coupled mass spectrometry (LC–MS)
Conditions: 2 µM
In the case of CC#C[C@]1(O)CC[C@H]2[C@@H]3CCC4=CC(=O)CCC4=C3[C@@H](c3ccc(N(C)C)cc3)C[C@@]21C [MIFEPRISTONE], the “Bacterial Biotransformation” value is reported as “Compound NOT metabolized”.
With CC(=O)OCC(=O)NCCCOc1cccc(CN2CCCCC2)c1 [ROXATIDINE ACETATE] the “Bacterial Biotransformation” value was “Compound metabolized”.

Assay: The drug is tested on Ruminococcus lactaris strain: ATCC29176 for biotransformation. The drug concentrations were measured before and after a 12-h incubation by liquid-chromatography-coupled mass spectrometry (LC–MS)
Conditions: 2 µM
For CC#C[C@]1(O)CC[C@H]2[C@@H]3CCC4=CC(=O)CCC4=C3[C@@H](c3ccc(N(C)C)cc3)C[C@@]21C [MIFEPRISTONE], the “Bacterial Biotransformation” value was “Compound NOT metabolized”.
With CC(=O)OCC(=O)NCCCOc1cccc(CN2CCCCC2)c1 [ROXATIDINE ACETATE] the “Bacterial Biotransformation” value was “Compound metabolized”.

Assay: The drug is tested on Coprococcus comes strain: ATCC27758 for biotransformation. The drug concentrations were measured before and after a 12-h incubation by liquid-chromatography-coupled mass spectrometry (LC–MS)
Type: ADME
Design: dose 2 uM, timepoint 0 vs 12 hours
Conditions: 2 µM
With CC#C[C@]1(O)CC[C@H]2[C@@H]3CCC4=CC(=O)CCC4=C3[C@@H](c3ccc(N(C)C)cc3)C[C@@]21C [MIFEPRISTONE] the “Bacterial Biotransformation” value was “Compound NOT metabolized”.
In the case of CC(=O)OCC(=O)NCCCOc1cccc(CN2CCCCC2)c1 [ROXATIDINE ACETATE], the “Bacterial Biotransformation” value is reported as “Compound metabolized”.

Assay: The drug is tested on Bacteroides fragilis strain: ATCC43859 for biotransformation. The drug concentrations were measured before and after a 12-h incubation by liquid-chromatography-coupled mass spectrometry (LC–MS)
Conditions: 2 µM
In the case of CC#C[C@]1(O)CC[C@H]2[C@@H]3CCC4=CC(=O)CCC4=C3[C@@H](c3ccc(N(C)C)cc3)C[C@@]21C [MIFEPRISTONE], the “Bacterial Biotransformation” value is reported as “Compound metabolized”.
With CC(=O)OCC(=O)NCCCOc1cccc(CN2CCCCC2)c1 [ROXATIDINE ACETATE] the “Bacterial Biotransformation” value was “Compound metabolized”.

Conditions: parabacteroides distasonis, 12 h, 2 µM
Description: The drug is tested on Parabacteroides distasonis strain: ATCC8503 for biotransformation. The drug concentrations were measured before and after a 12-h incubation by liquid-chromatography-coupled mass spectrometry (LC–MS)
In the case of CC#C[C@]1(O)CC[C@H]2[C@@H]3CCC4=CC(=O)CCC4=C3[C@@H](c3ccc(N(C)C)cc3)C[C@@]21C [MIFEPRISTONE], the “Bacterial Biotransformation” value is reported as “Compound NOT metabolized”.
With CC(=O)OCC(=O)NCCCOc1cccc(CN2CCCCC2)c1 [ROXATIDINE ACETATE] the “Bacterial Biotransformation” value was “Compound metabolized”.

Assay: The drug is tested on Enterobacter cancerogenus strain: ATCC35316 for biotransformation. The drug concentrations were measured before and after a 12-h incubation by liquid-chromatography-coupled mass spectrometry (LC–MS)
Conditions: 2 µM
For CC#C[C@]1(O)CC[C@H]2[C@@H]3CCC4=CC(=O)CCC4=C3[C@@H](c3ccc(N(C)C)cc3)C[C@@]21C [MIFEPRISTONE], the “Bacterial Biotransformation” value was “Compound NOT metabolized”.
For CC(=O)OCC(=O)NCCCOc1cccc(CN2CCCCC2)c1 [ROXATIDINE ACETATE], the “Bacterial Biotransformation” value was “Compound metabolized”.

Assay: The drug is tested on Bacteroides caccae strain: ATCC43185 for biotransformation. The drug concentrations were measured before and after a 12-h incubation by liquid-chromatography-coupled mass spectrometry (LC–MS)
Conditions: 2 µM
In the case of CC#C[C@]1(O)CC[C@H]2[C@@H]3CCC4=CC(=O)CCC4=C3[C@@H](c3ccc(N(C)C)cc3)C[C@@]21C [MIFEPRISTONE], the “Bacterial Biotransformation” value is reported as “Compound NOT metabolized”.
In the case of CC(=O)OCC(=O)NCCCOc1cccc(CN2CCCCC2)c1 [ROXATIDINE ACETATE], the “Bacterial Biotransformation” value is reported as “Compound metabolized”.

Conditions: bacteroides intestinalis, 12 h, 2 µM
Description: The drug is tested on Bacteroides intestinalis strain: DSM17393 for biotransformation. The drug concentrations were measured before and after a 12-h incubation by liquid-chromatography-coupled mass spectrometry (LC–MS)
With CC#C[C@]1(O)CC[C@H]2[C@@H]3CCC4=CC(=O)CCC4=C3[C@@H](c3ccc(N(C)C)cc3)C[C@@]21C [MIFEPRISTONE] the “Bacterial Biotransformation” value was “Compound NOT metabolized”.
With CC(=O)OCC(=O)NCCCOc1cccc(CN2CCCCC2)c1 [ROXATIDINE ACETATE] the “Bacterial Biotransformation” value was “Compound metabolized”.

Assay: The drug is tested on Bacteroides finegoldii strain: DSM17565 for biotransformation. The drug concentrations were measured before and after a 12-h incubation by liquid-chromatography-coupled mass spectrometry (LC–MS)
Conditions: 2 µM
In the case of CC#C[C@]1(O)CC[C@H]2[C@@H]3CCC4=CC(=O)CCC4=C3[C@@H](c3ccc(N(C)C)cc3)C[C@@]21C [MIFEPRISTONE], the “Bacterial Biotransformation” value is reported as “Compound NOT metabolized”.
For CC(=O)OCC(=O)NCCCOc1cccc(CN2CCCCC2)c1 [ROXATIDINE ACETATE], the “Bacterial Biotransformation” value was “Compound metabolized”.

Assay: The drug is tested on Clostridium scindens strain: ATCC35704 for biotransformation. The drug concentrations were measured before and after a 12-h incubation by liquid-chromatography-coupled mass spectrometry (LC–MS)
Conditions: 2 µM
With CC#C[C@]1(O)CC[C@H]2[C@@H]3CCC4=CC(=O)CCC4=C3[C@@H](c3ccc(N(C)C)cc3)C[C@@]21C [MIFEPRISTONE] the “Bacterial Biotransformation” value was “Compound NOT metabolized”.
With CC(=O)OCC(=O)NCCCOc1cccc(CN2CCCCC2)c1 [ROXATIDINE ACETATE] the “Bacterial Biotransformation” value was “Compound metabolized”.

Assay: The drug is tested on Providencia rettgeri strain: DSM1131 for biotransformation. The drug concentrations were measured before and after a 12-h incubation by liquid-chromatography-coupled mass spectrometry (LC–MS)
Type: ADME
Design: dose 2 uM, timepoint 0 vs 12 hours
Conditions: 2 µM
With CC#C[C@]1(O)CC[C@H]2[C@@H]3CCC4=CC(=O)CCC4=C3[C@@H](c3ccc(N(C)C)cc3)C[C@@]21C [MIFEPRISTONE] the “Bacterial Biotransformation” value was “Compound NOT metabolized”.
For CC(=O)OCC(=O)NCCCOc1cccc(CN2CCCCC2)c1 [ROXATIDINE ACETATE], the “Bacterial Biotransformation” value was “Compound metabolized”.

Assay: The drug is tested on Bacteroides fragilis strain: HMW615 for biotransformation. The drug concentrations were measured before and after a 12-h incubation by liquid-chromatography-coupled mass spectrometry (LC–MS)
Conditions: 2 µM
For CC#C[C@]1(O)CC[C@H]2[C@@H]3CCC4=CC(=O)CCC4=C3[C@@H](c3ccc(N(C)C)cc3)C[C@@]21C [MIFEPRISTONE], the “Bacterial Biotransformation” value was “Compound NOT metabolized”.
In the case of CC(=O)OCC(=O)NCCCOc1cccc(CN2CCCCC2)c1 [ROXATIDINE ACETATE], the “Bacterial Biotransformation” value is reported as “Compound metabolized”.

Conditions: bacteroides thetaiotaomicron, 12 h, 2 µM
Description: The drug is tested on Bacteroides thetaiotaomicron strain: 3731 for biotransformation. The drug concentrations were measured before and after a 12-h incubation by liquid-chromatography-coupled mass spectrometry (LC–MS)
For CC#C[C@]1(O)CC[C@H]2[C@@H]3CCC4=CC(=O)CCC4=C3[C@@H](c3ccc(N(C)C)cc3)C[C@@]21C [MIFEPRISTONE], the “Bacterial Biotransformation” value was “Compound NOT metabolized”.
For CC(=O)OCC(=O)NCCCOc1cccc(CN2CCCCC2)c1 [ROXATIDINE ACETATE], the “Bacterial Biotransformation” value was “Compound metabolized”.

Assay: The drug is tested on Bifidobacterium longum subsp. Infantis strain: CCUG52486 for biotransformation. The drug concentrations were measured before and after a 12-h incubation by liquid-chromatography-coupled mass spectrometry (LC–MS)
Conditions: 2 µM
For CC#C[C@]1(O)CC[C@H]2[C@@H]3CCC4=CC(=O)CCC4=C3[C@@H](c3ccc(N(C)C)cc3)C[C@@]21C [MIFEPRISTONE], the “Bacterial Biotransformation” value was “Compound NOT metabolized”.
In the case of CC(=O)OCC(=O)NCCCOc1cccc(CN2CCCCC2)c1 [ROXATIDINE ACETATE], the “Bacterial Biotransformation” value is reported as “Compound metabolized”.
